{"source": "paper PMC8568970", "about": "(Nature Communications, 2021)", "key": {"GHSR [1]": {"tested_on": "GHSR", "details": "cited from earlier work", "text": "It mainly signals through the growth hormone secretagogue receptor (GHSR, or ghrelin receptor), a class A G protein-coupled receptor (GPCR). […] The GHSR and Gi signaling ..."}, "wild type GHSR [2]": {"tested_on": "wild type GHSR", "test": "GTP turnover assay for Gi catalyzed by GHSR in nanodiscs", "type": "biochemical, human", "text": "(§1) Human GHSR was expressed in E. coli inclusion bodies, folded in amphipol A8-35, and then inserted into lipid nanodiscs formed with MSP1E3D1 and POPC:POPG (3:2 molar ratio) containing or not 10% cholesterol, as described in Damian et al.[54]. After insertion into nanodiscs, active receptor fractions were purified using affinity chromatography with the biotinylated version of the JMV2959 antagonist immobilized on a streptavidin column. GHSR containing disks were separated from aggregates and possible trace amounts of the ligand through a size-exclusion chromatography step on a Superdex 200 increase 10/300 GL column (GE Healthcare) using a 25 mM Na-HEPES, 150 mM NaCl, 0.5 mM EDTA, pH 7.5 buffer as the eluent. GTP turnover was assessed as described previously. All experiments were carried out at 15 °C. The receptor was first incubated with the isolated G protein and, when applicable, the ligand (10 µM) for 30 min in a 25 mM HEPES, 100 mM NaCl, 5 mM MgCl2, pH 7.5 buffer. GTP turnover was then started by adding GTP (5 µM) and GDP (10 µM), and the amount of remaining GTP was assessed after 10 min incubation at 15 °C using the GTPase-Glo assay (Promega). The signal was normalized in each case to that in the absence of receptor (100%).\nSupplementary Figure 2. Potential cholesterol binding sites and effects of cholesterol in GHSR signaling. (a) Cryo-EM density maps of two cholesterol molecules modeled in the structure of ghrelin-GHSR-Gi.GHSR is colored in slate. Cholesterol molecules are shown as grey sticks. (b) GTP turnover for Gi catalyzed by wild type GHSR in nanodiscs containing 10% […]\nnormalized to that obtained for the G protein in the absence of receptor (Gi panels), and data is mean ± SD of five experiments. Statistical values were obtained by means of two-sided […]\nloaded receptor, respectively). […]\nthe absence or presence of 10% cholesterol (molar ratio) into the lipid discs. Each data point represents mean ± SD of three experiments.\n(1 picture or pasted object on this page, not shown here)"}, "wild type GHSR [3]": {"tested_on": "wild type GHSR", "test": "HTRF competition between dy647-JMV2959 and ghrelin in lipid discs", "type": "binding, human", "text": "as §1\n(§2) Competition ligand-binding assays were performed using the HTRF signal between GHSR labeled with Lumi-4 Tb and the JMV2959 antagonist labeled with dy647. Increasing concentrations in the competing compound were added to a receptor: antagonist mixture (100 nM concentration range). In all cases, the ligand: receptor mixtures were incubated for 30 min at 15 °C and the HTRF signal recorded using a Cary Eclipse spectrofluorimeter (Varian) with an excitation wavelength set at 337 nm and an emission wavelength at 665 and 620 nm. All binding data were analyzed using Prism 8.0.\nSupplementary Figure 2. Potential cholesterol binding sites and effects of cholesterol in GHSR signaling. (a) Cryo-EM density maps of two cholesterol molecules modeled in the structure of ghrelin-GHSR-Gi.GHSR is colored in slate. Cholesterol molecules are shown as grey sticks. […]"}, "GHSR mutant R102A": {"tested_on": "GHSR mutant R102A", "test": "Calcium mobilization assay, R102A", "type": "cell-based, human", "details": "Fig. 2f", "method": "Ghrelin residues are labeled in orange. […] GHSR bound to ibutamoren is colored green. Ibutamoren is shown as yellow sticks. e Ibutamoren binding pocket. f Dose-dependent action of ibutamoren on wtGHSR and mutants. In c and f, agonist-induced GHSR signaling was measured by Ca^2+ mobilization assay. Each data point represents mean ± S.D. from three independent assays. Polar interactions are shown as dashed lines in (a, b, and e).\nCalcium mobilization assay to measure GHSR signaling was carried out in HEK-293T cells cultured in DMEM supplemented with 10% (vol/vol) FBS (Fisher Scientific). The cDNAs encoding human GHSR was cloned into the pcDNA3.1(+) vector (Invitrogen) with a FLAG peptide fused to the N terminus. […] The surface expression of wtGHSR and various mutants in HEK-293T cells was determined and confirmed using FACS with a fluorescent FLAG M1 antibody (homemade).\nTo measure the agonist-induced calcium release, 50 μL dye loading buffer made of Hank’s Balanced Salt Solution (HBSS) with 5 μM Fluo-4 (Sigma), 0.2% pluronicacid, and 1% FBS was added to the GHSR-expressing cells and incubated for 1 h at 37 °C. […] Fluo-4 fluorescence intensity (excitation 480 nm, emission 520 nm) was measured as an indicator of calcium release in a multimode reader (Spark 20 M, TECAN). […] The data were analyzed in GraphPad Prism 8 using the one site dose-response stimulation method. […]"}, "GHSR mutants [4]": {"tested_on": "GHSR mutants", "test": "Calcium mobilization assay, GHSR mutants (results in words)", "type": "cell-based, human", "method": "Calcium mobilization assay to measure GHSR signaling was carried out in HEK-293T cells cultured in DMEM supplemented with 10% (vol/vol) FBS (Fisher Scientific). The cDNAs encoding human GHSR was cloned into the pcDNA3.1(+) vector (Invitrogen) with a FLAG peptide fused to the N terminus. Mutant variants were then generated by site-directed mutagenesis and all mutants were fully sequenced. Various GHSR constructs were transfected to HEK-293T cells using FuGENE Transfection Reagent (Promega). The surface expression of wtGHSR and various mutants in HEK-293T cells was determined and confirmed using FACS with a fluorescent FLAG M1 antibody (homemade).\nTo measure the agonist-induced calcium release, 50 μL dye loading buffer made of Hank’s Balanced Salt Solution (HBSS) with 5 μM Fluo-4 (Sigma), 0.2% pluronicacid, and 1% FBS was added to the GHSR-expressing cells and incubated for 1 h at 37 °C. Cells were then washed twice with HBSS buffer and left at room temperature in 50 μL HBBS. Fluo-4 fluorescence intensity (excitation 480 nm, emission 520 nm) was measured as an indicator of calcium release in a multimode reader (Spark 20 M, TECAN). […] The data were analyzed in GraphPad Prism 8 using the one site dose-response stimulation method. Results were presented as mean ± S.D. from three independent experiments."}, "GHSR mutants [5]": {"tested_on": "GHSR mutants", "test": "HTRF-monitored binding of labeled ghrelin, GHSR mutants (results in words)", "set-up": "species or system human", "details": "Supplementary Fig. 3b", "method": "as §2\nGHSR mutants. (a) Surface expression levels of GHSR mutants tested in Figure 2. For each GHSR mutant, the expression level was determined by measuring the fluorescence intensity of transfected HEK-293 cells stained with a fluorescent anti-FLAG antibody that could bind to the N-terminal FLAG peptide of each GHSR construct. BG means background, representing results from non-transfected HEK-293 cells. Each column represents results shown as mean ± s.d. from 3 wells of cells transiently transfected with each GHSR mutant. (b) HTRF-monitored binding of […]\nPOPC:POPG lipid discs. The binding data are presented as variations in the HTRF ratio as a […]\nEach data point represents mean ± SD of three […]\nibutamoren (yellow). The receptors are colored in slate and green, respectively. ECL2 and ECL3 show notable conformational differences. […]"}, "GHSR mutants [6]": {"tested_on": "GHSR mutants", "details": "cited from earlier work"}, "GHSR [7]": {"tested_on": "GHSR", "details": "signaling through GHSR, under nutritional or physiological challenges; cited from earlier work", "text": "It mainly signals through the growth hormone secretagogue receptor (GHSR, or ghrelin receptor), a class A G protein-coupled receptor (GPCR). […] In addition, GHSR plays critical role in the mod ..."}, "[8]": {"tested_on": "GHSR and Gi signaling pathway", "details": "cited from earlier work", "text": "The GHSR and Gi signaling ..."}, "[9]": {"details": "reconstituted lipid nanodiscs, 10% cholesterol"}}, "note": "Entries after “also recorded” stand apart in the source; their conditions may differ. Ends that are not written are not given here. * marks the point of attachment. Octanoyl = CCCCCCCC(=O)*"}
{"compound": "Cc1cc(-c2ccc3c(c2)CC[C@H]3N2CC3(CCN(C(=O)Cc4cn5cc(C)sc5n4)CC3)C2)ncn1", "note": "[PF-5190457]", "values": [{"measurement": "pharmacological character at GHSR", "setting": "GHSR [1]", "value": "GHSR inverse agonist"}]}
{"compound": "CC(C)CCC[C@@H](C)[C@H]1CC[C@H]2[C@@H]3CC=C4C[C@@H](O)CC[C@]4(C)[C@H]3CC[C@]12C", "note": "[cholesterol]", "values": [{"measurement": "effect of cholesterol on GHSR-induced Gi activation", "setting": "wild type GHSR [2]; 10% cholesterol (molar ratio), with and without 10 µM ghrelin, five experiments", "value": "subtle but significant positive effects"}, {"measurement": "effect of cholesterol on basal activity (GTP turnover)", "setting": "wild type GHSR [2]; no ligand, lower amplitude than in the presence of ghrelin", "value": "statistically significant effect"}, {"measurement": "effect of cholesterol on activity of GHSR", "setting": "wild type GHSR [2]; [9]", "value": "positively regulate"}, {"measurement": "effect of cholesterol on affinity of GHSR for ghrelin", "setting": "wild type GHSR [3]; 10% cholesterol, lipid discs (peer review file)", "value": "slightly increase the affinity of GHSR for ghrelin"}, {"measurement": "effect of cholesterol on binding of ghrelin to GHSR", "setting": "wild type GHSR [3]; [9]", "value": "positively regulate the binding of ghrelin to GHSR"}]}
{"compound": "CC(C)(N)C(=O)N[C@H](COCc1ccccc1)C(=O)N1CCC2(CC1)CN(S(C)(=O)=O)c1ccccc12", "note": "[ibutamoren]", "values": [{"measurement": "action of ibutamoren, effect of mutation of R102", "setting": "GHSR mutant R102A", "value": "compromised action of ibutamoren"}]}
{"compound": "Liver expressed antimicrobial peptide 2 (LEAP2): Liver expressed antimicrobial peptide 2, GHSR inverse agonist or antagonist (MTPFWRGVSLRPIGASCRDDSECITRLCRKRRCSLSVAQE; UniProt Q969E1 38-77, looked up)", "values": [{"measurement": "pharmacological character at GHSR", "setting": "GHSR [1]", "value": "GHSR inverse agonist or antagonist"}]}
{"compound": "ghrelin: 28-amino acid orexigenic peptide hormone; octanoylation at position-3 serine; endogenous GHSR agonist (Tocris) (GSS(Octanoyl)FLSPEHQRVQQRKESKKPPAKLQPR; UniProt Q9UBU3 24-51, looked up)", "values": [{"measurement": "decrease of Kd value for ghrelin in the presence of cholesterol", "setting": "wild type GHSR [3]; 10% cholesterol vs none, lipid discs", "value": "about 2 fold"}, {"measurement": "EC50 of ghrelin in inducing GHSR signaling, effect of the four TM7 proline mutations", "setting": "GHSR mutants [4]; I297P, A298P, Q299P, I300P vs wtGHSR, 3 independent assays", "value": "didn't significantly affect the EC50s of ghrelin"}, {"measurement": "agonistic action of ghrelin, effect of proline mutations at the extracellular end of TM7", "setting": "GHSR mutants [4]; individual residues E297 to I300 to proline, Supplementary Fig. 4b", "value": "didn't significantly affect the agonistic action of ghrelin; also recorded: not critical for the agonistic action of ghrelin"}, {"measurement": "GHSR signaling induced by ghrelin, effect of mutations of hydrophobic residues in cavity II", "setting": "GHSR mutants [4]; mutations to larger or polar residues, Fig. 2c", "value": "compromised GHSR signaling induced by ghrelin"}, {"measurement": "ghrelin binding, effect of salt bridge mutations", "setting": "GHSR mutants [5]; E124 and R283 to alanine or glutamine", "value": "could almost abolish ghrelin binding"}, {"measurement": "affinity of GHSR for ghrelin, effect of alanine mutations", "setting": "GHSR mutants [5]; individual mutations I178, L181, F286 to alanine", "value": "decreased affinity of GHSR for ghrelin"}, {"measurement": "potency of ghrelin in activating GHSR, effect of mutations F279, F312, W276", "setting": "GHSR mutants [6]; individual mutations in the aromatic cluster", "value": "significantly lowered the potency of ghrelin"}, {"measurement": "potency of ghrelin, effect of mutations E124, R283, Q120", "setting": "GHSR mutants [6]; individual mutations to non-polar residues", "value": "decreased potency of ghrelin"}, {"measurement": "growth hormone secretion and food intake", "setting": "GHSR [7]", "value": "stimulates growth hormone secretion and food intake"}, {"measurement": "glucose-induced insulin release", "setting": "[8]", "value": "attenuated glucose-induced insulin release"}]}
